For 4 molecules, IC50, AC50 and EC50 results are on record in ChEMBL document CHEMBL1201862, “PubChem BioAssay data set” (2004).

Test [1] relates to HEK293. The test is described as follows: HEK293T cell viability loss, resazurin readout – resazurin fluorescence, cytotoxicity control for NF-kB activator project, SAR follow-up (AID 493251). The settings on record: Homo sapiens, HEK293. The class given is functional, cell-based.
For a further test, the system named is Jurkat. As to the kind of experiment: SAR Analysis of small molecule inhibitors of T-cell specific antigen receptor-induced NF-kB activation in a Jurkat cell line using a luminescence assay - Set 2. [Related pubchem assays (depositor defined):AID435003, AID435012, AID465]. As to conditions: Homo sapiens. It counts as functional, cell-based.
The subject of test [2] is HEK293. As to the kind of experiment: SAR Analysis of small molecule inhibitors of T-cell specific antigen receptor-induced NF-kB activation in a HEK-293T cell line using a luminescence assay - Set 2. [Related pubchem assays (depositor defined):AID435003, AID435012, AID489026]. It counts as functional, cell-based. As to conditions: Homo sapiens.
For the next test, the target named is CAAX prenyl protease 2 (Homo sapiens, UniProt Q9Y256). The test is described as follows: inhibition of Ras-converting CAAX protease Rce1 – biochemical, yeast membranes, quenched-peptide fluorescence, cherry-pick, dose response (AID 588849).
Chain of CAAX prenyl protease 2 (Q9Y256 whole entry): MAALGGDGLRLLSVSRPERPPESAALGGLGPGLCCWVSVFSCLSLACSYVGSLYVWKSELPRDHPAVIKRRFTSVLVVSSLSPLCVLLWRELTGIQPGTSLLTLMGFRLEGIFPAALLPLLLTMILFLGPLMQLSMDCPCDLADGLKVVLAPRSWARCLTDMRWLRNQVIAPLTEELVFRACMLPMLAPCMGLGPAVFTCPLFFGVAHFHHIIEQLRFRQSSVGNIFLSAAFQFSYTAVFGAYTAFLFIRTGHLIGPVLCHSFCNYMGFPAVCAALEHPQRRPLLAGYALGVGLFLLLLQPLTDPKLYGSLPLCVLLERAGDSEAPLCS
Test [3] deals with T1, Nuclear receptor subfamily 0 group B member 1 (Homo sapiens, UniProt P51843).
T1 sequence (P51843 whole entry): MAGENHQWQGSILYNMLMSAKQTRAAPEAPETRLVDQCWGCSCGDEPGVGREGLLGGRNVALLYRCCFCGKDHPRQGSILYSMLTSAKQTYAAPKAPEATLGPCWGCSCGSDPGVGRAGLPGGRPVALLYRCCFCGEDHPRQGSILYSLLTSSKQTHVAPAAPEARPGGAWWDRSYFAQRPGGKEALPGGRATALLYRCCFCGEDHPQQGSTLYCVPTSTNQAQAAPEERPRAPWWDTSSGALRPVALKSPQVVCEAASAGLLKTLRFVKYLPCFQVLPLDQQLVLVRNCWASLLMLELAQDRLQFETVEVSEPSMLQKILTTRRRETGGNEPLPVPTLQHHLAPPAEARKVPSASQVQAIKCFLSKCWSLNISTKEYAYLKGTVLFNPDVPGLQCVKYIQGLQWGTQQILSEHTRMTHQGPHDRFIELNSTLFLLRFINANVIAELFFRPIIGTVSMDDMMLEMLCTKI
The test is described as follows: Luminescence-based cell-based high throughput dose response assay for inhibitors of the orphan nuclear receptor subfamily 0, group B, member 1 (DAX1; NR0B1). [Related pubchem assays (depositor defined):AID504766, AID504790]. It counts as functional.

For test [4], the system named is HEK293. As to the kind of experiment: cells. As to conditions: Homo sapiens. It counts as functional, cell-based.
The nature of test [5]: Luminescence Cell-Based Dose Response HTS to Identify Inhibitors of 5'UTR Stem-Loop Driven Prion Protein mRNA Translation in H4 Neuroglioblastoma Cells. [Related pubchem assays: 1827 (Project Summary), 1813 (Primary HTS)]. It counts as functional.
The nature of test [6]: luciferase reporter signal suppression in cells – H4 neuroglioma cells, luminescence, dose response (AID 1990). The class given is functional, cell-based.
The next test addresses Beta Lactamase (Pseudomonas aeruginosa, UniProt Q932Y6). As to the kind of experiment: BLA reporter interference, concentration series – BLA reporter cells, FRET fluorescence, artefact control for TLR9-MyD88 binding inhibitor project, dose response (AID 588341).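 Note: cell based assay in CHO-K1 cells stably expressing beta-lactamase.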 The class given is cell-based.
A further test deals with INS1. The test is described as follows: INS-1E survival protection against cytokine death – cell-based, luminescence, retest, dose response (AID 449756).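 Note: cell death triggered by IL-1 beta plus TNF-alpha plus IFN-gamma mixture; protective hits raise ATP signal compared with cytokine alone wells.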 The class given is functional. As to conditions: Rattus norvegicus.
The nature of test [7]: reduction of Shn3 3'UTR-driven luciferase in osteoblasts – cell-based, Clone20 osteoblasts, firefly luciferase, cherry-picked, dose response (AID 624132).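 Note: firefly luciferase luminescence from reporter carrying the Shn3 3'UTR in osteoblasts.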 The class given is functional.
For another test, the system named is A-375. As to the kind of experiment: proliferation inhibition in MITF-low A375 cells – cell-based, cherry-pick samples, set 2, counter-screen for MITF modulator project, dose response (AID 540335). It counts as functional. The settings on record: Homo sapiens.
Test [8] can be described thus: non-specific 3'UTR reporter inhibition in Clone20-Shn3RL – cell-based, Renilla luciferase, cherry-picked, counter-screen for Shn3 inhibitor project, dose response (AID 624133). The class given is functional.
A short description of test [9]: loss of viability in HepG2 cells – cell-based, CellTiter-Glo, cherry-picked, cytotoxicity control for Shn3 inhibitor project, dose response (AID 624134). The class given is functional.
Test [10] is described as follows: alpha-synuclein stem-loop luciferase translation blockers – H4 neuroglioma cells, luminescence, confirmation (AID 1988). It counts as functional, cell-based.
The next test has as its target T2, Streptokinase A (Streptococcus pyogenes serotype M1, UniProt P10520).
T2 sequence (P10520 whole entry): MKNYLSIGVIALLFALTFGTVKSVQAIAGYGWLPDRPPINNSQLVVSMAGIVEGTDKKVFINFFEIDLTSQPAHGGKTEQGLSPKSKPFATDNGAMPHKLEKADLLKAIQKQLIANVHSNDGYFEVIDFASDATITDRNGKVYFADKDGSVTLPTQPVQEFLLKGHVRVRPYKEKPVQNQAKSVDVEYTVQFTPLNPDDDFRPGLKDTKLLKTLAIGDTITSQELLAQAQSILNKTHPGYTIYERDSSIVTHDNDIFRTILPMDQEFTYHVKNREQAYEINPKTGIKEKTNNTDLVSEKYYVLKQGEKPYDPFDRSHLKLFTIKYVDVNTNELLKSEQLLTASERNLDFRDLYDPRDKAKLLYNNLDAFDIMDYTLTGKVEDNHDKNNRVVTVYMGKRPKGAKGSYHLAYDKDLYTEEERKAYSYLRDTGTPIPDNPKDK
As to the kind of experiment: viability-normalized secreted streptokinase activity reduction – plasminogen activation absorbance, OD405, dose response (AID 1914).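 Note: secreted streptokinase activity via plasminogen activation per viability signal from cell pellet.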 It counts as functional, Streptococcus pyogenes M1 GAS.

For test [11], the system named is Streptococcus sp. 'group A'. As to the kind of experiment: Streptococcus pyogenes SK(-)GAS viability under kanamycin – luminescence, BacTiterGlo, confirmation, counter-screen for streptokinase expression inhibitor project, dose response (AID 1900). The class given is functional, organism-based.
The next test has as its system CHO. As to the kind of experiment: CHO cell viability loss, potency – luminescence, cytotoxicity control for TLR9-MyD88 binding inhibitor project, dose response (AID 588339).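 Note: CHO cells stably coexpressing TLR9 and MyD88 fusions from primary screen; compound exposure lasted 48 hours before viability readout.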 It counts as functional, cell-based, hamster. The settings on record: Cricetulus griseus.
In the next test the test system is Streptococcus. The test is described as follows: GAS UMAA2166 growth inhibition – luminescence, BacTiterGlo, counter-screen for streptokinase expression inhibitor project, dose response (AID 1915).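 Note: potency for reduction of bacterial viability or growth.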 It counts as functional, organism-based.
In test [12] the target is T3, Microphthalmia-associated transcription factor (Homo sapiens, UniProt O75030).
T3 sequence (O75030 whole entry): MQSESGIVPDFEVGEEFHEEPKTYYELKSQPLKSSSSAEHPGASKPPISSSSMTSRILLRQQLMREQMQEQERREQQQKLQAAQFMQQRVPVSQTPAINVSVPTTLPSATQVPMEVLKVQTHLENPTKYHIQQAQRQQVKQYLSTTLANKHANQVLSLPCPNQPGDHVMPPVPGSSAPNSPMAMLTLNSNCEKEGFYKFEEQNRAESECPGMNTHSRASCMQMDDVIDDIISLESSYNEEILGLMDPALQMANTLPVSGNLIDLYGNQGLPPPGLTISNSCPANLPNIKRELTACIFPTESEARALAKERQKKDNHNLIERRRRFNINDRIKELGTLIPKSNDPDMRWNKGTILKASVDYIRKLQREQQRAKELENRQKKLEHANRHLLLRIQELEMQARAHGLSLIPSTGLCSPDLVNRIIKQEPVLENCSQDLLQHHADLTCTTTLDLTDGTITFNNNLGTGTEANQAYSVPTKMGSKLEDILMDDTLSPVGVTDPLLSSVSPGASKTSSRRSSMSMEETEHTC
The test is described as follows: reducers of TRPM1 reporter luminescence, concentration series – cell-based, SK-MEL-5, cherry-picked, set 3, MITF inhibitor project, dose response (AID 493073).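 Note: SK-MEL-5 melanoma cells with luciferase driven by the MITF target TRPM1 promoter.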 It counts as functional.

Calls of active or inactive are those of the source.

Chain of Beta Lactamase (Q932Y6 whole entry): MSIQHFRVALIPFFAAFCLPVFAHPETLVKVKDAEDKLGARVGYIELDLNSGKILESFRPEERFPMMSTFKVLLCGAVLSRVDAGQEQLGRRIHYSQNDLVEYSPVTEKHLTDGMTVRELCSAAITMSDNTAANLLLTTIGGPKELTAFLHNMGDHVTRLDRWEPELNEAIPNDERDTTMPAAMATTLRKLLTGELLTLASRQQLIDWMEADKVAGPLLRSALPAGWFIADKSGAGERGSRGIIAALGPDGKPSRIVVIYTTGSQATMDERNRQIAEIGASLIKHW

Regarding `COc1ccc(C(NC(=O)Cc2ccccc2)c2ccc3cccnc3c2O)cc1OC` (stereo not given), the IC50 in the test with HEK293 [1] is 11.2 µM (active); in the test with Jurkat, 2.24 µM (active); with HEK293 [2], 2.61 µM (active).

`Cc1nc(N2CCCCC2C)c2c(C)c(C(=O)Nc3ccccc3C(F)(F)F)sc2n1` (stereo not given): on CAAX prenyl protease 2, the AC50 was 6.65 µM (active).

In the case of `CSCC[C@H](NC(=O)OC(C)(C)C)C(=O)N1CCC(C(=O)N[C@@H](C)C(=O)NC(C)c2ccccc2)CC1` (stereo not given in full), the IC50 (in [3]; in the test on HEK293 [4]) was > 67.5 µM (inactive) each time.

In the case of `CCOC(=O)c1ccc(NC(=O)c2nc(S(=O)(=O)Cc3ccccc3)ncc2Cl)cc1`, the EC50 was 10.3 µM (active) in test [5]; > 120 µM (not active) in test [6]; 10.8 µM (active) in test [10]; 2.11 µM (active) at Streptokinase A; 6.81 µM (active) in test [11]; 10 µM (active) in the test with Streptococcus. In addition, the IC50 was 8.4 µM (active) at Beta Lactamase and 1.95 µM (active) with CHO. Moreover, the AC50 with INS1 was 6.7 µM (active); in test [7], 0.572 µM (active); with A-375, 36.6 µM (active); in test [8], 7.7 µM (active); in [9] it was 28.9 µM (active); in test [12], 9.92 µM (active).
